Literature values, collected in patent US10188773B2, “Compositions and devices of poly-4-hydroxybutyrate” (Tepha, Inc., priority 2013, dated 2019).

Conditions: metabolism in the body; Nelson et al. 1981, Sendelbeck et al. 1985

For `O=C(O)CCCO` [4HB, 4-hydroxybutyric acid], the half-life is listed as “approximately 27 minutes”.
